US20060257432A1, “Pharmaceutical formulations of xanthogenates and inhibitors of viral nucelic acid replication” (priority 2003, published 2006)

Columns and labels:
HSV-1 (Wal strain) = test: Experimental skin infection of mice with HSV-1, ointment treatment; assay type: in vivo, mice (Balb-C strain); conditions: HSV-1-infected Balb-C mice, 5% ointment twice daily from day 4 after infection; for survival: 14 days, placebo: 3 of 10 survived
Description: One part (by weight) D609, one part (by weight) potassium salt of decanoic acid, and four parts (by weight) cholesterol were mixed in a mortar. Subsequently, propyleneglycol (final concentration 10%) and vaseline were added such that the final concentration of D609 was 5%. The same procedure was used to produce ointments containing 5% aciclovir or 5% D609 and 5% aciclovir. A placebo ointment containing neither of the two agents was produced using the analogous procedure.
Ten mice (Balb-C strain) each were shaved on their upper leg and six scratches in the skin were made with a cannula in an area of 5×5 mm. Subsequently, a cotton bud was used to apply 50 μl of a HSV-1 suspension (Wal strain, 10^8 plaque-forming units/ml). The treatment (twice daily) was initiated four days after infection. The symptoms, “widespread lesions”, “hind leg paralysis”, and survival were recorded in the protocol.
The result is shown graphically in FIGS. 2a to 2d. […] Triangles indicate the surviving animals in each case, squares the animals with hind leg paralysis, and diamonds the animals with widespread lesions.

[1] = test system: herpes simplex virus (Type-1, strain ANG); test: Plaque formation of herpes simplex virus in Calu-6 cells; assay type: cell-based; conditions: for number of plaques: Calu-6 cells, 48 h
Description: Human lung carcinoma cells (Calu-6) were infected with 30 plaque-forming units of herpes simplex virus (Type-1, strain ANG) in Linbro plates. Cell culture medium (MEM containing 10% fetal calf serum, 0.85 g/l sodium bicarbonate, and 0.5% carboxymethylcellulose) containing either 0, 5 or 10 μg/ml exo/exo-tricyclo[5,2,1,0^2,6]-9yl-xanthogenate (D609) was added two hours after infection. The cultures were treated with aciclovir at the same time. All samples were processed as quadruplicates. The cells were incubated for 48 h at 37° C. under CO2 gassing (5%). Then the medium was decanted, the cells were fixed with 3% formalin and stained with 0.5% crystal violet. After drying at room temperature, the number of plaques formed was determined.

S=C(S)OC1CC2CC1C1CCCC21 (stereo not drawn) [D609, exo/exo-tricyclo[5,2,1,0^2,6]-9yl-xanthogenate]
healing of lesions and paralysis (HSV-1 (Wal strain)): almost completely healed | survival (HSV-1 (Wal strain)): survival rate higher | number of plaques ([1]; 5 μg/ml D609 alone, no-D609 control 32.75±11): 32±3 | number of plaques ([1]; 10 μg/ml D609 alone, no-D609 control 32.75±11): 33±6 | effect on plaque formation ([1]; D609 alone at 5 or 10 μg/ml): no effect

Nc1nc2c(ncn2COCCO)c(=O)[nH]1 [aciclovir]
healing of lesions and paralysis (HSV-1 (Wal strain)): almost completely healed | survival (HSV-1 (Wal strain)): survival rate higher | number of plaques ([1]; aciclovir 0.16 μM alone, not statistically significant (p=0.4)): 30±11 | increase of the effect of aciclovir in cell culture ([1]; in the presence of low, antivirally ineffective concentrations of the xanthogenate): increased up to five-fold
